# Measurements taken from patent publication US8158622B2, “Pyrrolopyridine-2-carboxylic acid amide inhibitors of glycogen phosphorylase” (Prosidion Limited, priority 2003, dated 2012).
# Biological target: T1, Rabbit muscle glycogen phosphorylase a (Oryctolagus cuniculus, UniProt P00489)
# T1 construct: purchased Sigma P1261
# T1 sequence (P00489 2-843 limits assumed): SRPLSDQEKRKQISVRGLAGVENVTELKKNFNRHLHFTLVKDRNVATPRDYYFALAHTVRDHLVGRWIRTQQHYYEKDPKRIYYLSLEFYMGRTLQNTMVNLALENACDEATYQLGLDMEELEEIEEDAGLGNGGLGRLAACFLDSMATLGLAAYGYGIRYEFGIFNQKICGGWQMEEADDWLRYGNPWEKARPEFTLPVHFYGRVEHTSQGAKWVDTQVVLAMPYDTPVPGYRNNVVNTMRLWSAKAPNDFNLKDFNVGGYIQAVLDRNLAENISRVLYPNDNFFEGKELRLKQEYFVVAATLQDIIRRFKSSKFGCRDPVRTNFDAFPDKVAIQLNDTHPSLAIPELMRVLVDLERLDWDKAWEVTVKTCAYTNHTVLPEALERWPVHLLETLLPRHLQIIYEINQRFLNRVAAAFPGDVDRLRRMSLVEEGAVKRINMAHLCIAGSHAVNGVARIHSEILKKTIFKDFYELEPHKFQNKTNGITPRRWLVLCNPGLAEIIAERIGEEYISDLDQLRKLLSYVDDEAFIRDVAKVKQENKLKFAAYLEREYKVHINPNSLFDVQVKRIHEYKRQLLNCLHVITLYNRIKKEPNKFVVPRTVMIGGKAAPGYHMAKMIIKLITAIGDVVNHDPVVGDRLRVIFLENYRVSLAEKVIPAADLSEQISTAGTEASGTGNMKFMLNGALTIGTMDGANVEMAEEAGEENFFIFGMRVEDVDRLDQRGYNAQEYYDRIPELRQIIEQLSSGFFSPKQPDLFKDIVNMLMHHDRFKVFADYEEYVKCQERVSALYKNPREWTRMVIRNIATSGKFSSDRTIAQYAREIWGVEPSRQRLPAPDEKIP
# Test: Glycogen phosphorylase assay in vitro (reverse direction, malachite green phosphate detection)
# Format: biochemical
# Conditions: 50 mM Hepes pH 7.2, 7.5 mM glucose, 0.5 mM glucose-1-phosphate, 1 mg/mL glycogen, 30° C. for 30 min
# From the text: α-D-Glucose-1-phosphate (disodium salt), Glycogen, D-Glucose, Malachite Green Hydrochloride, Ammonium Molybdate tetrahydrate, BSA, HEPES and rabbit muscle phosphorylase α (P1261) were purchased from Sigma. All other reagents were analytical grade.
# Glycogen Phosphorylase Assay In Vitro:
# An assay for glycogen phosphorylase activity in the reverse direction was developed based on the method described by Engers et al., Can. J. Biochem., 1970, 48, 746-754]. Rabbit muscle glycogen phosphorylase a (Sigma) was reconstituted at a stock concentration of 100 μg/mL in 25 mM Tris/HCl. […] in a 96-well plate in a final volume of 100 μL containing 50 mM Hepes pH 7.2, 7.5 mM glucose, 0.5 mM glucose-1-phosphate and 1 mg/mL glycogen. After incubation at 30° C. for 30 min, the inorganic phosphate released from glucose-1-phosphate was measured by the addition of 150 μL of malachite green/molybdate solution prepared as follows: 5 mL of 4.2% ammonium molybdate in 4N HCl, 15 mL of 0.045% malachite green, 50 μL of Tween 20. Following a 30 min incubation at rt, the absorbance was measured at 620 nm. For IC50 determination, 10 μL of a serial dilution of compound (100 μM to 0.004 μM) in DMSO was added to each reaction in duplicate with the equivalent concentration of DMSO added to the control uninhibited reaction. Dose response curves were then obtained by plotting % inhibition versus log10 compound concentration. IC50 is defined as the concentration of compound achieving 50% inhibition under the assay conditions described.
row,SMILES,IC50 [µM]
1,"CN(C)C(=O)[C@H](Cc1ccccc1)NC(=O)c1cc2ncccc2[nH]1 [Example 24, 1H-Pyrrolo[3,2-b]pyridine-2-carboxylic acid (1-dimethylcarbamoyl-2-(S)-phenylethyl)amide]",≥ 100
2,"O=C(NCCNCc1ccccc1)c1cc2cc(Cl)ncc2[nH]1 [Example 29, 5-Chloro-1H-pyrrolo[2,3-c]pyridine-2-carboxylic acid (2-benzylaminoethyl)amide]",≥ 100
3,"O=C(NCCN1CCN(Cc2ccccc2)CC1)c1cc2cc(Cl)ncc2[nH]1 [Example 28, 5-Chloro-1H-pyrrolo[2,3-c]pyridine-2-carboxylic acid [2-(4-benzylpiperazin-1-yl)ethyl]amide]",≥ 100
4,"COc1ccc2[nH]c(C(=O)N[C@@H](Cc3ccccc3)C(=O)N(C)C)cc2n1 [Example 23, 5-Methoxy-1H-pyrrolo[3,2-b]pyridine-2-carboxylic acid (1-dimethylcarbamoyl-2-(S)-phenylethyl)amide]",≥ 100

# Now from value to molecule:
row,IC50 [µM],SMILES
1,≥ 100,"O=C(NCCNc1ccccc1)c1cc2ccncc2[nH]1 [Example 21, 1H-Pyrrolo[2,3-c]pyridine-2-carboxylic acid (2-phenylaminoethyl)amide]"
2,≥ 100,"O=C(NCCNc1ccccc1)c1cc2ncccc2[nH]1 [Example 26, 1H-Pyrrolo[3,2-b]pyridine-2-carboxylic acid (2-phenylaminoethyl)amide]"
3,≥ 100,"O=C(NCCOc1ccccc1)c1cc2ncccc2[nH]1 [Example 25, 1H-Pyrrolo[3,2-b]pyridine-2-carboxylic acid (2-phenoxyethyl)amide]"
